Data from ChEMBL document CHEMBL3885881, “DrugMatrix”.

Species: Rattus norvegicus
Experiment: DrugMatrix - Regimen: Daily Repeat
Format: toxicity, organism-based, Sprague-Dawley
Design: regimen Daily Repeat, gender Male, age 6-8 weeks
Settings: in vivo, sc, route mini-PUMP - SUBCUTANEOUS, vehicle 100 % SALINE; for TOTAL PROTEIN / ALANINE AMINOTRANSFERASE / ALBUMIN / ALKALINE PHOSPHATASE / ASPARTATE AMINOTRANSFERASE / BLOOD UREA NITROGEN / CARBON DIOXIDE / CHLORIDE / CHOLESTEROL / LACTATE DEHYDROGENASE / LIPASE / PHOSPHORUS / POTASSIUM / SODIUM / CREATININE / TOTAL BILIRUBIN: tissue Plasma; for ABSOLUTE BASOPHIL / ABSOLUTE EOSINOPHIL / ABSOLUTE LYMPHOCYTE / ABSOLUTE MONOCYTE / ABSOLUTE SEGMENTED NEUTROPHIL / BASOPHIL / EOSINOPHIL / ERYTHROCYTE COUNT / HEMOGLOBIN / LEUKOCYTE COUNT / LYMPHOCYTE / MEAN CORPUSCULAR HEMOGLOBIN / MEAN CORPUSCULAR HEMOGLOBIN CONCENTRATION / MEAN CORPUSCULAR VOLUME / NUCLEATED RED BLOOD CELLS / PLATELET COUNT: tissue Blood
[1] = 0 mg/kg, 120 h, dose level Control, time 5 day
[2] = 0 mg/kg, […], dose level Control, time 14 day
[3] = […], dose 0.77 mg/Kg, dose level High, time 14 day

With `CNC[C@H](O)c1ccc(O)c(O)c1` [EPINEPHRINE] the “TOTAL PROTEIN” value (0 mg/kg, 72 h, dose level Control, time 3 day) was 6.05 G/DL, the “ABSOLUTE BASOPHIL” value [1] was 0 CELLS/uL and the “ABSOLUTE EOSINOPHIL” value [1] was 0 CELLS/uL. For the same molecule, the “ABSOLUTE LYMPHOCYTE” value [1] was 14257.33 CELLS/uL, the “ABSOLUTE MONOCYTE” value [1] was 326 CELLS/uL and the “ABSOLUTE SEGMENTED NEUTROPHIL” value [1] was 3216.67 CELLS/uL. For the same molecule, the BASOPHIL [1] was 0%, the EOSINOPHIL [1] was 0% and the “ERYTHROCYTE COUNT” value [1] was 6.11 x10E6/uL. For the same molecule, the HEMOGLOBIN [1] was 13.18 G/DL, the “LEUKOCYTE COUNT” value [1] was 17.8 x10E3/uL and the LYMPHOCYTE [1] was 80.5%. For the same molecule, the “MEAN CORPUSCULAR HEMOGLOBIN” value [1] was 21.62 pg, the “MEAN CORPUSCULAR HEMOGLOBIN CONCENTRATION” value [1] was 36.42 G/DL and the “MEAN CORPUSCULAR VOLUME” value [1] was 59.37 fL. The “NUCLEATED RED BLOOD CELLS” value [1] was 0 /100WBC, the “PLATELET COUNT” value [1] was 1311 x10E3/uL and the “ALANINE AMINOTRANSFERASE” value [1] was 47 u/L. For the same molecule, the ALBUMIN [1] was 3.83 G/DL, the “ALKALINE PHOSPHATASE” value [1] was 260.33 u/L and the “ASPARTATE AMINOTRANSFERASE” value [1] was 76.17 u/L. For the same molecule, the “BLOOD UREA NITROGEN” value [1] was 14.67 mg/dL, the “CARBON DIOXIDE” value [1] was 31.33 mmol/L and the CHLORIDE [1] was 101.17 MEQ/L. The CHOLESTEROL [1] was 75 mg/dL, the “LACTATE DEHYDROGENASE” value [1] was 147.33 u/L and the LIPASE [1] was 9.33 u/L. For the same molecule, the PHOSPHORUS [1] was 10.97 mg/dL, the POTASSIUM [1] was 6 MEQ/L and the SODIUM [1] was 145.52 MEQ/L. For the same molecule, the “TOTAL PROTEIN” value [1] was 5.83 G/DL, the “ABSOLUTE BASOPHIL” value [2] was 0 CELLS/uL and the “ABSOLUTE EOSINOPHIL” value [2] was 64.5 CELLS/uL. For the same molecule, the “ABSOLUTE LYMPHOCYTE” value [2] was 12507.83 CELLS/uL, the “ABSOLUTE MONOCYTE” value [2] was 380.33 CELLS/uL and the “ABSOLUTE SEGMENTED NEUTROPHIL” value [2] was 2414 CELLS/uL. For the same molecule, the BASOPHIL [2] was 0%, the EOSINOPHIL [2] was 0.5% and the “ERYTHROCYTE COUNT” value [2] was 6.1 x10E6/uL. For the same molecule, the HEMOGLOBIN [2] was 12.88 G/DL, the “LEUKOCYTE COUNT” value [2] was 15.37 x10E3/uL and the LYMPHOCYTE [2] was 80.83%. For the same molecule, the “MEAN CORPUSCULAR HEMOGLOBIN” value [2] was 21.18 pg, the “MEAN CORPUSCULAR HEMOGLOBIN CONCENTRATION” value [2] was 36.43 G/DL and the “MEAN CORPUSCULAR VOLUME” value [2] was 58.17 fL. For the same molecule, the “NUCLEATED RED BLOOD CELLS” value [2] was 0.17 /100WBC, the “PLATELET COUNT” value [2] was 1016 x10E3/uL and the “ALANINE AMINOTRANSFERASE” value [2] was 53.33 u/L. For the same molecule, the ALBUMIN [2] was 3.93 G/DL, the “ALKALINE PHOSPHATASE” value [2] was 319.83 u/L and the “ASPARTATE AMINOTRANSFERASE” value [2] was 84 u/L. The “BLOOD UREA NITROGEN” value [2] was 15.5 mg/dL, the “CARBON DIOXIDE” value [2] was 34 mmol/L and the CHLORIDE [2] was 101.83 MEQ/L. The CHOLESTEROL [2] was 57 mg/dL, the CREATININE [2] was 0.21 mg/dL and the “LACTATE DEHYDROGENASE” value [2] was 104.67 u/L. For the same molecule, the LIPASE [2] was 9.17 u/L, the PHOSPHORUS [2] was 11.12 mg/dL and the POTASSIUM [2] was 5.81 MEQ/L. The SODIUM [2] was 144.85 MEQ/L, the “TOTAL BILIRUBIN” value [2] was 0.18 mg/dL and the “TOTAL PROTEIN” value [2] was 5.92 G/DL. For the same molecule, the “ABSOLUTE BASOPHIL” value [3] was 0 CELLS/uL, the “ABSOLUTE EOSINOPHIL” value [3] was 121.6 CELLS/uL and the “ABSOLUTE LYMPHOCYTE” value [3] was 13213.6 CELLS/uL. The “ABSOLUTE MONOCYTE” value [3] was 369.4 CELLS/uL, the “ABSOLUTE SEGMENTED NEUTROPHIL” value [3] was 2115.4 CELLS/uL and the BASOPHIL [3] was 0%. The EOSINOPHIL [3] was 0.8%, the “ERYTHROCYTE COUNT” value [3] was 6.78 x10E6/uL and the HEMOGLOBIN [3] was 14.32 G/DL. The “LEUKOCYTE COUNT” value [3] was 15.82 x10E3/uL, the LYMPHOCYTE [3] was 84.2% and the “MEAN CORPUSCULAR HEMOGLOBIN” value [3] was 21.14 pg. The “MEAN CORPUSCULAR HEMOGLOBIN CONCENTRATION” value [3] was 36.3 G/DL, the “MEAN CORPUSCULAR VOLUME” value [3] was 58.22 fL and the “NUCLEATED RED BLOOD CELLS” value [3] was 0 /100WBC. For the same molecule, the “PLATELET COUNT” value [3] was 976 x10E3/uL, the “ALANINE AMINOTRANSFERASE” value [3] was 53.2 u/L and the ALBUMIN [3] was 4.38 G/DL. For the same molecule, the “ALKALINE PHOSPHATASE” value [3] was 383.4 u/L, the “ASPARTATE AMINOTRANSFERASE” value [3] was 82 u/L and the “BLOOD UREA NITROGEN” value [3] was 15.6 mg/dL. The “CARBON DIOXIDE” value [3] was 34.2 mmol/L, the CHLORIDE [3] was 99.8 MEQ/L and the CHOLESTEROL [3] was 80.2 mg/dL. For the same molecule, the CREATININE [3] was 0.21 mg/dL, the “LACTATE DEHYDROGENASE” value [3] was 111.2 u/L and the LIPASE [3] was 9 u/L. For the same molecule, the PHOSPHORUS [3] was 11.84 mg/dL, the POTASSIUM [3] was 6.19 MEQ/L and the SODIUM [3] was 147.16 MEQ/L. The “TOTAL BILIRUBIN” value [3] was 0.14 mg/dL and the “TOTAL PROTEIN” value [3] was 6.7 G/DL.
